{
  "source": "patent US20240182941A1",
  "about": "“XYLOSYLATED STEVIOL GLYCOSIDES AND ENZYMATIC METHODS FOR PRODUCTION” (CARGILL, INCORPORATED, priority 2021, published 2024)",
  "test_system": "SEQ ID NO:1",
  "assay": "Glycosylation of Reb F, Reb G and Dulcoside A using SEQ ID NO:1 and activated sugars",
  "assay_type": "biochemical, Oryza sativa Japonica Group",
  "settings": "for Rhamnosylation using UDP-rhamnose compared with glucosylation and xylosylation / glucosylation and xylosylation plateauing after: -19C(O)-β-Glc residue; for glucosylation and xylosylation plateauing after: UDP-glucose and UDP-xylose",
  "procedure": "Bioconversion reaction was carried out in a total of 100 uL sealed vials containing the Tris buffer, 0.1 μmoles of SG acceptor, 0.2 μmoles of activated sugar donor, 1 μmoles of sucrose and 2 ug protein of the enzymes. To each vial, buffer, sucrose, UDP-sugar donor, and SG acceptor were added in that order before finally the enzymes were added. For each SG donor, a control was included to contain the same amounts of sucrose and enzymes without UDP-sugar donors. After hand mixing, the vials were placed in a temperature-controlled shaker set at 30C and 100 rpm in rotating motion for 96 hours (4 days).\nAfter 4 days of reaction, 0.9 mL of 80% acetonitrile was added to each vial and the resulting samples were analyzed in LC/MS. Xylose modification of the -19C(O)-β-Glc residue was confirmed.\nThe ability of SEQ ID NO:1 to glycosylate the -19C(O)-β-Glc residue of RebF, RebG, and Dulcoside A with different activated sugars used at different concentrations was examined, with the reaction products formed being measured over the course of the reaction.\nUDP-glucose, UDP-xylose, and UDP-rhamnose di-sodium salts were used, and the reagents and reaction conditions were as described in Example 1.",
  "data": [
    {"compound": "C=C1C[C@@]23CC[C@H]4[C@@](C)(CCC[C@@]4(C)C(=O)O[C@@H]4O[C@H](CO)[C@@H](O)[C@H](O)[C@H]4O)[C@@H]2CC[C@]1(O[C@@H]1O[C@H](CO)[C@@H](O)[C@H](O)[C@H]1O[C@@H]1O[C@@H](C)[C@H](O)[C@@H](O)[C@H]1O)C3", "note": "[Dulcoside A, dulcoside A]", "values": [
      {"measurement": "Rhamnosylation using UDP-rhamnose compared with glucosylation and xylosylation", "value": "significantly lower"},
      {"measurement": "% Dul A bioconversion", "setting": "UDP-Glucose, 0 hours", "value": 0, "unit": "%"},
      {"measurement": "% Dul A bioconversion", "setting": "UDP-Glucose, 15 hours", "value": 77.162, "unit": "%"},
      {"measurement": "% Dul A bioconversion", "setting": "UDP-Glucose, 48 hours", "value": 75.215, "unit": "%"},
      {"measurement": "% Dul A bioconversion", "setting": "UDP-Glucose, 96 hours", "value": 73.71, "unit": "%"},
      {"measurement": "% Dul A bioconversion", "setting": "UDP-Rhamnose, 0 hours", "value": 0, "unit": "%"},
      {"measurement": "% Dul A bioconversion", "setting": "UDP-Rhamnose, 15 hours", "value": 17.384, "unit": "%"},
      {"measurement": "% Dul A bioconversion", "setting": "UDP-Rhamnose, 48 hours", "value": 27.427, "unit": "%"},
      {"measurement": "% Dul A bioconversion", "setting": "UDP-Rhamnose, 96 hours", "value": 32.608, "unit": "%"},
      {"measurement": "% Dul A bioconversion", "setting": "UDP-Xylose, 0 hours", "value": 0, "unit": "%"},
      {"measurement": "% Dul A bioconversion", "setting": "UDP-Xylose, 15 hours", "value": 79.34, "unit": "%"},
      {"measurement": "% Dul A bioconversion", "setting": "UDP-Xylose, 48 hours", "value": 79.919, "unit": "%"},
      {"measurement": "% Dul A bioconversion", "setting": "UDP-Xylose, 96 hours", "value": 79.349, "unit": "%"},
      {"measurement": "glucosylation and xylosylation plateauing after", "value": 20, "unit": "min"}
    ]},
    {"compound": "C=C1C[C@@]23CC[C@H]4[C@@](C)(CCC[C@@]4(C)C(=O)O[C@@H]4O[C@H](CO)[C@@H](O)[C@H](O)[C@H]4O)[C@@H]2CC[C@]1(O[C@@H]1O[C@H](CO)[C@@H](O)[C@H](O[C@@H]2O[C@H](CO)[C@@H](O)[C@H](O)[C@H]2O)[C@H]1O)C3", "note": "[Reb G, rebaudioside G]", "values": [
      {"measurement": "Rhamnosylation using UDP-rhamnose compared with glucosylation and xylosylation", "value": "significantly lower"},
      {"measurement": "% Reb G bioconversion", "setting": "UDP-Glucose, 0 hours", "value": 0, "unit": "%"},
      {"measurement": "% Reb G bioconversion", "setting": "UDP-Glucose, 15 hours", "value": 87.748, "unit": "%"},
      {"measurement": "% Reb G bioconversion", "setting": "UDP-Glucose, 48 hours", "value": 85.225, "unit": "%"},
      {"measurement": "% Reb G bioconversion", "setting": "UDP-Glucose, 96 hours", "value": 83.427, "unit": "%"},
      {"measurement": "% Reb G bioconversion", "setting": "UDP-Rhamnose, 0 hours", "value": 0, "unit": "%"},
      {"measurement": "% Reb G bioconversion", "setting": "UDP-Rhamnose, 15 hours", "value": 17.055, "unit": "%"},
      {"measurement": "% Reb G bioconversion", "setting": "UDP-Rhamnose, 48 hours", "value": 26.923, "unit": "%"},
      {"measurement": "% Reb G bioconversion", "setting": "UDP-Rhamnose, 96 hours", "value": 31.347, "unit": "%"},
      {"measurement": "% Reb G bioconversion", "setting": "UDP-Xylose, 0 hours", "value": 0, "unit": "%"},
      {"measurement": "% Reb G bioconversion", "setting": "UDP-Xylose, 15 hours", "value": 78.904, "unit": "%"},
      {"measurement": "% Reb G bioconversion", "setting": "UDP-Xylose, 48 hours", "value": 78.311, "unit": "%"},
      {"measurement": "% Reb G bioconversion", "setting": "UDP-Xylose, 96 hours", "value": 77.211, "unit": "%"},
      {"measurement": "glucosylation and xylosylation plateauing after", "value": 20, "unit": "min"}
    ]},
    {"compound": "rebaudioside F [Reb F]", "values": [
      {"measurement": "Rhamnosylation using UDP-rhamnose compared with glucosylation and xylosylation", "value": "significantly lower"},
      {"measurement": "% Reb F bioconversion", "setting": "UDP-Glucose, 0 hours", "value": 0, "unit": "%"},
      {"measurement": "% Reb F bioconversion", "setting": "UDP-Glucose, 15 hours", "value": 85.9, "unit": "%"},
      {"measurement": "% Reb F bioconversion", "setting": "UDP-Glucose, 48 hours", "value": 85.96, "unit": "%"},
      {"measurement": "% Reb F bioconversion", "setting": "UDP-Glucose, 96 hours", "value": 84.4, "unit": "%"},
      {"measurement": "% Reb F bioconversion", "setting": "UDP-Rhamnose, 0 hours", "value": 0, "unit": "%"},
      {"measurement": "% Reb F bioconversion", "setting": "UDP-Rhamnose, 15 hours", "value": 17.5, "unit": "%"},
      {"measurement": "% Reb F bioconversion", "setting": "UDP-Rhamnose, 48 hours", "value": 28.412, "unit": "%"},
      {"measurement": "% Reb F bioconversion", "setting": "UDP-Rhamnose, 96 hours", "value": 33.216, "unit": "%"},
      {"measurement": "% Reb F bioconversion", "setting": "UDP-Xylose, 0 hours", "value": 0, "unit": "%"},
      {"measurement": "% Reb F bioconversion", "setting": "UDP-Xylose, 15 hours", "value": 86.406, "unit": "%"},
      {"measurement": "% Reb F bioconversion", "setting": "UDP-Xylose, 48 hours", "value": 86.2, "unit": "%"},
      {"measurement": "% Reb F bioconversion", "setting": "UDP-Xylose, 96 hours", "value": 84.179, "unit": "%"},
      {"measurement": "glucosylation and xylosylation plateauing after", "value": 20, "unit": "min"}
    ]}
  ]
}
